Laboratory results as given in patent publication US20090030037A1, “Sustained Release Formulation and Dosing Schedules of Leukotriene Synthesis Inhibitor for Human Therapy” (deCODE Genetics ehf., priority 2005, published 2009).
“And” between values parts separate entries of the source, which are not always exact repeats. Identical values can stand only once.

How the values were obtained:
LDL cholesterol = assay: Study DG-031-201: LDL cholesterol; format: in vivo, human; details: highest dose of DG-031
Method: Patients who met the study eligibility criteria were enrolled and randomized into 3 different dose-level groups: (1) 64 patients on 250 mg/day therapy with DG-031 (250 mg q.d.), vs placebo; (2) 64 patients on 500 mg/day therapy with DG-031 (250 mg b.i.d.) vs placebo; and (3) 63 patients on 750 mg/day therapy with DG-031 (250 mg t.i.d.) vs placebo. […] All patients received 3 tablets per day. Treatment periods, 4 weeks in duration each, were separated by a 2-week washout period. The placebo tablets were identical in shape, color, form and taste to the active tablets except that they contained no active drug ingredients. Treatment with DG-031 or placebo was in addition to the subject's standard care, including all medications and treatment plan as prescribed by the subject's cardiologist prior to enrolment. A total of 191 subjects were enrolled, with 172 completing all 8 visits or 8 patients short of the target of 180 patients.
All data were analyzed according to a pre-established statistical analysis plan (SAP) and by intention-to-treat (ITT). Each arm of the study, as well as pooled sets (combining dose levels), was considered for the primary analysis. […] The difference between DG-031 and placebo treatment was the primary outcome, assessed separately for each of the biomarkers. […]

[1] = tested on: MPO release, human whole blood; assay: In vitro MPO release in human whole blood after ionomycin stimulation; format: cell-based
Method: Neutrophils and other cells in human whole blood respond in vitro to activation by a calcium ionophore (e.g., ionomycin), with an increase in LTB4 production and with coupled release of MPO stimulated in part by LTB4 production in the assay. The effect of DG-031 on the capacity for production of LTB4 in vitro after ionomycin stimulation was evaluated at concentrations ranging from 0.1 μM up to 240 μM.
Blood samples collected from the clinical study described in Example 2 were evaluated assuming that the ex vivo response profile in clinical samples parallels the in vitro response over the entire concentration range, 250 mg TID dosing which maintains concentrations above 2-3 μg/ml (˜7 μM) should maintain a 30% or greater reduction of capacity for LTB4 production at all times. Peak concentrations of DG-031 with 250 mg TID dosing were about 10 μg/ml (28 μM) and should be associated with about 65% reduction of capacity for LTB4 production. The typical patient's pharmacodynamic response was expected to fluctuate between 30% and 65% reduction of capacity for LTB4 production over the course of a dosing interval.

MPO [2] = assay: Study DG-031-203: plasma MPO; format: in vivo, human; details: 250 mg TID, 6 hours after intake
Method: The study also collected information on the dose-related effect of DG-031 on capacity for LTB4 production (ex vivo), plasma MPO, and serum-CRP. […] The pattern observed supported a concentration dependent pharmacologic effect of DG-031 on capacity for LTB4 production measured ex vivo. The effects on LTB4 production amounted to a 30% (p=0.016) and 25% (p=0.094) reduction with the 375 mg BID and 250 mg TID doses, respectively.

[3] = Steady-state DG-031 plasma concentrations and half-life, studies DG-031-201 and DG-031-203; format: in vivo, human; details: humans
Source text: Maintaining the minimum concentration using TIED dosing requires only about 70% of the drug that is required for a BID schedule. TID dosing is a more efficient process in terms of drug utilization when the goal is maintaining concentrations above a minimum threshold. It has the added advantage of reducing a patient's total exposure to the drug.

MPO [4] = assay: Study DG-031-204: plasma MPO; format: in vivo, human; details: for Serum MPO (% change from baseline), mean response: after 4 weeks of DG-031 administration
Method: (§1) An additional single site, open label study was carried out to obtain biomarker and safety data on additional DG-031 doses (i.e., 1000 mg and 1500 mg). This study examined the safety, tolerability and dose-related effects of DG-031 on inflammatory biomarkers including: LTB4, hsCRP, and MPO. A total of 119 patients with a prior history of CAD and MI were randomized to receive either 1000 mg DG-031 (500 mg BID) or 1500 mg DG-031 (500 mg TID) daily for 4-6 weeks. Treatment with DG-031 in addition to the subject's standard care, medication, and treatment, was prescribed by the patient's cardiologist. A majority of the subjects received statin therapy before, during and after the study. Follow-up assessments were performed 2 weeks after the end of study drug administration.
(§2) The biomarkers were analyzed as described in Example 1. Statistical analysis of the data was carried out using a one-sample t-test on change from baseline with a two-sided nominal significance level of 0.050. Biomarker concentrations were log-transformed and a simple last observation carried forward (LOCF) scheme was used to impute missing observations.
Plasma MPO concentration was measured weekly. MPO measurements in ionomycin-stimulated whole blood were also measured in a subset of patients at 4 weeks.

CD40L = assay: Study DG-031-204: CD40L; format: in vivo, human; details: after 4 weeks
Method: as §1, §2
CD40L was measured at 2-week intervals. […] After 4 weeks, there was a 22% (p<0.001; n=55) reduction in CD40L in the 500 mg BID group and a 21% (p<0.001; n=57) reduction in the 500 mg TID group. CD40L levels remained suppressed at the 2 week follow up visit.

Structure (SMILES): O=C(O)[C@@H](c1ccc(OCc2ccc3ccccc3n2)cc1)C1CCCC1 [DG-031, (R)-(+)-alpha-cyclopentyl-4-(2-quinolinylmethoxy)-Benzeneacetic acid]
- Increase in LDL cholesterol (LDL cholesterol): 8%
- Concentration at which MPO release is maximally inhibited in vitro [1]: about 6 μM and ~2 μg/ml
- Reduction of plasma MPO levels (MPO [2]): 37%
- Dominant half-life [3]: 2.5 to 3 h
- Plasma MPO concentrations, change from baseline (MPO [4]; 500 mg BID or TID, measured weekly): No changes from baseline
- Serum MPO (% change from baseline), mean response (MPO [4]; 1000 mg (500 mg BID)): +3%
- Serum MPO (% change from baseline), mean response (MPO [4]; 1500 mg (500 mg TID)): −12%
- Reduction in CD40L (CD40L; 500 mg BID): 22%
- Reduction in CD40L (CD40L; 500 mg TID): 21%
